Non-standard residues stand in square brackets, D forms with d. Residues, ends and D or L forms follow the SMILES beside them. Aib = CC(C)(N)C(=O)O
How the values were obtained:
h38C2 = conditions: competition ELISA against immobilized BSA-conjugated β-diketone 1, read-out: apparent equilibrium dissociation constant; cited from earlier work
m38C2 = conditions: competition ELISA against immobilized BSA-conjugated β-diketone 1, read-out: apparent equilibrium dissociation constant; cited from earlier work
pancreatic β cells = experiment: glucose-stimulated insulin secretion (GSIS) assay; type: cell-based; conditions: GA targeting peptide; insulin secretion from pancreatic β cell cultures in vitro with glucose
Procedure: Briefly, glucose and GA targeting peptide was added at various concentrations to pancreatic β cell cultures, and insulin secretion was detected by measuring insulin levels over time. EC50 was calculated for each peptide.
The ability of these GA targeting agent-linker conjugates to stimulate […] secretion in vitro was measured using the GSIS assay described in Example 27. […] Each of these peptides contained a side-chain modified Lys residue according to the scheme illustrated in FIG. 30 at a different position.

Compound | EC50 (pancreatic β cells) [µM] | Kd (h38C2) [µM] | Kd (m38C2) [µM]
CC(=O)CC(=O)CCc1ccccc1 [β-diketone 3] | – | 1 | 0.43
CC(=O)CC(C)=O [β-diketone 2] | – | 7.6 | 38
CC[C@H](C)[C@H](NC(=O)[C@H](Cc1ccccc1)NC(=O)[C@H](CCC(=O)O)NC(=O)[C@H](CCCCN)NC(=O)[C@H](C)NC(=O)[C@H](C)NC(=O)[C@H](CCC(N)=O)NC(=O)CNC(=O)[C@H](CCC(=O)O)NC(=O)[C@H](Cc1ccccc1)NC(=O)[C@H](Cc1ccc(O)cc1)NC(=O)[C@H](CO)NC(=O)[C@H](CO)NC(=O)[C@@H](NC(=O)[C@H](CC(=O)O)NC(=O)[C@H](CO)NC(=O)[C@@H](NC(=O)[C@H](Cc1ccccc1)NC(=O)[C@@H](NC(=O)CNC(=O)[C@H](CCC(=O)O)NC(=O)C(C)(C)NC(=O)[C@@H](N)Cc1c[nH]cn1)[C@@H](C)O)[C@@H](C)O)C(C)C)C(=O)N[C@@H](C)C(=O)N[C@@H](Cc1c[nH]c2ccccc12)C(=O)N[C@@H](CC(C)C)C(=O)N[C@H](C(=O)N[C@@H](CCCCN)C(=O)NC(C)(C)C(=O)N[C@@H](CCCNC(=N)N)C(N)=O)C(C)C [SEQ ID NO: 42] (H-H[Aib]EGTFTSDVSSYFEGQAAKEFIAWLVK[Aib]R-NH2) | < 10 | – | –

The next lines start with results.

EC50 (pancreatic β cells) [µM] | Compound | Kd (h38C2) [µM] | Kd (m38C2) [µM]
< 10 | CC[C@H](C)[C@H](NC(=O)[C@H](Cc1ccccc1)NC(=O)[C@H](CCC(=O)O)NC(=O)[C@H](CCCCN)NC(=O)[C@H](C)NC(=O)[C@H](C)NC(=O)[C@H](CCC(N)=O)NC(=O)CNC(=O)[C@H](CCC(=O)O)NC(=O)[C@H](Cc1c[nH]c2ccccc12)NC(=O)[C@H](Cc1ccc(O)cc1)NC(=O)[C@H](CO)NC(=O)[C@H](CO)NC(=O)[C@@H](NC(=O)[C@H](CC(=O)O)NC(=O)[C@H](CO)NC(=O)[C@@H](NC(=O)[C@H](Cc1ccccc1)NC(=O)[C@@H](NC(=O)CNC(=O)[C@H](CCC(=O)O)NC(=O)C(C)(C)NC(=O)[C@@H](N)Cc1c[nH]cn1)[C@@H](C)O)[C@@H](C)O)C(C)C)C(=O)N[C@@H](C)C(=O)N[C@@H](Cc1c[nH]c2ccccc12)C(=O)N[C@@H](CC(C)C)C(=O)N[C@H](C(=O)N[C@@H](CCCCN)C(=O)NC(C)(C)C(=O)N[C@@H](CCCNC(=N)N)C(N)=O)C(C)C [SEQ ID NO: 44] (H-H[Aib]EGTFTSDVSSYWEGQAAKEFIAWLVK[Aib]R-NH2) | – | –
< 10 | CC[C@H](C)[C@H](NC(=O)[C@H](Cc1ccccc1)NC(=O)[C@H](CCC(=O)O)NC(=O)[C@H](CCCCN)NC(=O)[C@@H](NC(=O)[C@H](C)NC(=O)[C@H](CCC(N)=O)NC(=O)[C@H](CCC(=O)O)NC(=O)[C@H](CCC(=O)O)NC(=O)[C@H](Cc1ccc(O)cc1)NC(=O)[C@H](Cc1ccc(O)cc1)NC(=O)[C@H](CO)NC(=O)[C@H](CO)NC(=O)[C@@H](NC(=O)[C@H](CC(=O)O)NC(=O)[C@H](CO)NC(=O)[C@@H](NC(=O)[C@H](Cc1ccccc1)NC(=O)[C@@H](NC(=O)CNC(=O)[C@H](CCC(=O)O)NC(=O)C(C)(C)NC(=O)[C@@H](N)Cc1c[nH]cn1)[C@@H](C)O)[C@@H](C)O)C(C)C)C(C)C)C(=O)N[C@@H](C)C(=O)N[C@@H](Cc1c[nH]c2ccccc12)C(=O)N[C@@H](CC(C)C)C(=O)N[C@H](C(=O)N[C@@H](CCCCN)C(=O)NC(C)(C)C(=O)N[C@@H](CCCNC(=N)N)C(N)=O)[C@@H](C)CC [SEQ ID NO: 59] (H-H[Aib]EGTFTSDVSSYYEEQAVKEFIAWLIK[Aib]R-NH2) | – | –
< 10 | CC[C@H](C)[C@H](NC(=O)[C@H](Cc1ccccc1)NC(=O)[C@H](CCC(=O)O)NC(=O)[C@H](CCCNC(=N)N)NC(=O)[C@@H](NC(=O)[C@H](C)NC(=O)[C@H](CCC(N)=O)NC(=O)[C@H](CCC(=O)O)NC(=O)[C@H](CCC(=O)O)NC(=O)[C@H](CC(C)C)NC(=O)[C@H](Cc1ccc(O)cc1)NC(=O)[C@H](CO)NC(=O)[C@H](CO)NC(=O)[C@@H](NC(=O)[C@H](CC(=O)O)NC(=O)[C@H](CO)NC(=O)[C@@H](NC(=O)[C@H](Cc1ccccc1)NC(=O)[C@@H](NC(=O)CNC(=O)[C@H](CCC(=O)O)NC(=O)C(C)(C)NC(=O)[C@@H](N)Cc1c[nH]cn1)[C@@H](C)O)[C@@H](C)O)C(C)C)C(C)C)C(=O)N[C@@H](C)C(=O)N[C@@H](Cc1c[nH]c2ccccc12)C(=O)N[C@@H](CC(C)C)C(=O)N[C@H](C(=O)N[C@@H](CCCNC(=N)N)C(=O)NC(C)(C)C(=O)N[C@@H](CCCNC(=N)N)C(N)=O)[C@@H](C)CC [SEQ ID NO: 62] (H-H[Aib]EGTFTSDVSSYLEEQAVREFIAWLIR[Aib]R-NH2) | – | –

Reference: patent US20090098130A1, “GLUCAGON-LIKE PROTEIN-1 RECEPTOR (GLP-1R) AGONIST COMPOUNDS” (priority 2007, published 2009)
